Measurements: PubChem BioAssay (NCI)
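All cell lines were grown in 96-well plates and treated with compound for 48 hours. Abbreviation: GI50, concentration required for 50% inhibition of growth. At the TGI there is no net growth.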

Key:
Assay in all cases: NCI tumour cell line growth inhibition, 48 h
XF 498 CNS = system: XF 498 CNS
SNB-78 CNS = system: SNB-78 CNS
HOP-18 NSCLC = system: HOP-18 NSCLC
LXFL 529 NSCLC = system: LXFL 529 NSCLC
RXF-631 renal = system: RXF-631 renal
DLD-1 colon = system: DLD-1 colon
DMS 114 small cell lung = system: DMS 114 small cell lung
DMS 273 small cell lung = system: DMS 273 small cell lung
KM20L2 colon = system: KM20L2 colon

SMILES	TGI (XF 498 CNS)	TGI (SNB-78 CNS)	TGI (HOP-18 NSCLC)	TGI (LXFL 529 NSCLC)	TGI (RXF-631 renal)	TGI (DLD-1 colon)	TGI (DMS 114 small cell lung)	TGI (DMS 273 small cell lung)	TGI (KM20L2 colon)	GI50 (DMS 114 small cell lung)	GI50 (KM20L2 colon)
CN(C)C(=S)/N=c1\ssc(=S)n1Cc1ccccn1	34.3 µM	> 100 µM	> 100 µM	> 100 µM	> 100 µM	> 100 µM					
COC(=O)C(C(=O)C(=O)Nc1ccc(C)cc1C)c1nc2ccc([N+](=O)[O-])cc2[nH]c1=O (stereo not given)	> 100 µM	> 100 µM	> 100 µM	> 100 µM	> 100 µM	> 100 µM	> 100 µM	> 100 µM	> 100 µM		
Nc1nc(SCc2ccccc2[N+](=O)[O-])c2[nH]cnc2n1		> 100 µM		> 100 µM		> 100 µM		> 100 µM	> 100 µM		
CCc1c(-c2coc(CC/C(C)=C/c3ccccc3)n2)oc(OC)c(C)c1=O	75.4 µM	> 100 µM	> 100 µM	> 55.5 µM		> 65.6 µM	29.2 µM	> 54.7 µM	> 54.6 µM		
N=C(N)Cn1cnc2ccccc21		> 100 µM	> 100 µM	> 100 µM			> 100 µM		> 100 µM		
C=CC[C@@]1(C#N)C[C@H](C[C@]2(C#N)C[C@H](CCl)OC(C)(C)O2)OC(C)(C)O1	> 100 µM		> 100 µM			> 100 µM	> 100 µM	> 100 µM	> 100 µM		
O=c1cc(-c2ccc[nH]2)[nH]c2cc3c(cc12)OCO3	89.2 µM			> 100 µM	> 100 µM	> 100 µM	> 100 µM	> 100 µM	42.6 µM	32.5 µM	20.1 µM
[N-]=[N+]=NC(c1cn(C2CC(O)C(CO)O2)c(=O)[nH]c1=O)C(I)I (stereo not given)		> 100 µM	> 100 µM	> 100 µM		> 100 µM	> 100 µM	> 100 µM	> 100 µM		
Oc1cccc2nc3cc(CN4CCOCC4)c(CN4CCOCC4)cc3nc12	> 100 µM	> 100 µM	> 100 µM	> 100 µM	> 100 µM	> 100 µM		> 100 µM	> 100 µM		
Cc1ccc(C(=O)NC(C)C)cc1N=NN(C)C		> 100 µM		> 100 µM		> 100 µM		> 100 µM	> 100 µM		
CCOC(=O)CC(=Nc1cc(C)on1)N(CC)CC	> 100 µM	> 100 µM		> 100 µM		> 100 µM	> 100 µM	> 100 µM	> 100 µM		
Cc1cc(C)c(N)c(C)c1N		> 100 µM	> 100 µM	> 100 µM		> 100 µM	> 100 µM	> 100 µM	> 100 µM		
CC[S+](C)c1ccc(-c2c3nc(c(-c4ccc([S+](C)CC)cc4)c4ccc([nH]4)c(-c4ccc([S+](C)CC)cc4)c4nc(c(-c5ccc([S+](C)CC)cc5)c5ccc2[nH]5)C=C4)C=C3)cc1 (stereo not given)	8.31 µM	> 100 µM		> 100 µM				> 100 µM	> 100 µM		
COc1ccc2c(c1)Cc1c-2[nH]c2cc3c(cc2c1=O)OCO3	38.3 µM	> 100 µM	58.2 µM	> 100 µM		41.7 µM	17.9 µM	24.7 µM	35 µM		
